We go through five molecules from patent publication US9512114B2, “Substituted aminopyrimidine compounds and methods of use” (Calitor Sciences, LLC, priority 2013, dated 2016).

Series [1] deals with systemic lupus erythematosis model. To be noted: Nature Medicine, 2005, 11, 933-935; cited from earlier work.
Series [2] concerns rheumatoid arthritis model. Particulars: Nature Medicine, 2005, 11, 936-943; cited from earlier work.
A short description of series [3]: Compound stability in rat liver microsomes. The series is classed as in vitro ADME. Particulars: pH 7.4; for CLint scaled at 5 μM: liver microsomes, in vivo CLint extrapolated from rat liver microsome incubation; for half-life at 5 μM: rat liver microsomes 0.5 mg protein/mL, compound 5 μM, NADPH 1.0 mM, 37° C., read-out: Rat T1/2. A digest of the protocol: (§1)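 Human or rat liver microsomes (0.5 mg protein/mL) incubated with compound (5 μM) and NADPH (1.0 mM) in 100 mM potassium phosphate, pH 7.4, 0.05% DMSO, 37° C, sampled 0–60 min and quenched with cold acetonitrile. Remaining compound quantified by LC/MS/MS as % of time zero; CLint extrapolated.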

Another series deals with PI3K (p110α/p85α) (h) (Homo sapiens (Human), UniProt P42336). The series can be described thus: PI3K (p110α/p85α) (h) non-radioactive HTRF kinase assay. The class given is biochemical. Particulars: performed at Millipore UK Ltd. On the procedure: (§2) The above assay procedure can be used to determine the IC50 for inhibition and/or the inhibition constant, Ki.
PI3K (p110α/p85α) (h) [Non-Radioactive Assay]
(§3) PI3K (p110α/p85α) (h) is incubated in assay buffer containing 10 μM phosphatidylinositol 4,5-bisphosphate and MgATP (concentration as required). The reaction is initiated by the addition of the ATP solution. After incubation for 30 minutes at room temperature, the reaction is stopped by the addition of stop solution containing EDTA and biotinylated phosphatidylinositol-3,4,5-trisphosphate. Finally, detection buffer is added, which contains europium-labelled anti-GST monoclonal antibody, GST-tagged GRP1 PH domain and streptavidin allophycocyanin. The plate is then read in timeresolved fluorescence mode and the homogenous time-resolved fluorescence (HTRF) signal is determined according to the formula HTRF=10000×(Em665 nm/Em620 nm).
(§4) The kinase assays described herein were performed at Millipore UK Ltd, Dundee Technology Park, Dundee DD2 1SW, UK.
A general note: TR-FRET usually uses a lanthanide donor and a delayed reading to cut background.

Series [4] is described as follows: Pharmacokinetic profiles in rats. The class given is in vivo, rat. Summed up: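 In rats, dogs and monkeys, IV dose was generally 1 or 2 mg/kg. Oral dose was generally 5 or 10 mg/kg in rats and 10 mg/kg in dogs and monkeys, given as solution, suspension or capsule. Plasma sampled over up to 24 h and analysed by LC/MS/MS.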
A further series addresses PI3K (p120γ) (h) (Homo sapiens (Human), UniProt P48736). The series is described as follows: PI3K (p120γ) (h) non-radioactive HTRF kinase assay. The class given is biochemical. Particulars: performed at Millipore UK Ltd. On the procedure: as §2
PI3K (p120γ) (h) [Non-Radioactive Assay]
as §3, with “(p120γ)” for “(p110α/p85α)”, “phosphatidylinositol-4, 5-bisphosphate” for “phosphatidylinositol 4,5-bisphosphate”, “MgATP mix.” for “ATP solution.”, “streptavidin-allophycocyanin.” for “streptavidin allophycocyanin.”
as §4

Series [5] in a line: Compound stability in human liver microsomes. The series is classed as in vitro ADME. Particulars: pH 7.4; for CLint scaled at 5 μM: liver microsomes, in vivo CLint extrapolated from human liver microsome incubation; for half-life at 5 μM: human liver microsomes 0.5 mg protein/mL, compound 5 μM, NADPH 1.0 mM, 37° C., read-out: Human T1/2. Summed up: as §1
The target in the next series is PI3K (p110β/p85α) (h) (Homo sapiens (Human), UniProt P42338). The series can be described thus: PI3K (p110β/p85α) (h) non-radioactive HTRF kinase assay. The class given is biochemical. Particulars: performed at Millipore UK Ltd. On the procedure: as §2
PI3K (p110β/p85α) (h) [Non-Radioactive Assay]
as §3, with “([…])” for “(p110α/p85α)”, “phosphatidylinositol-4, 5-bisphosphate” for “phosphatidylinositol 4,5-bisphosphate”, “MgATP mix.” for “ATP solution.”, “streptavidin-allophycocyanin.” for “streptavidin allophycocyanin.”
as §4

The target in another series is PI3K (p110δ/p85α) (h) (Homo sapiens (Human), UniProt O00329). The series is described as follows: PI3K (p110δ/p85α) (h) non-radioactive HTRF kinase assay. The class given is biochemical. Particulars: performed at Millipore UK Ltd. As for the experimental part:
as §2
PI3K (p110δ/p85α) (h) [Non-Radioactive Assay]
as §3, with “(p110δ/p85α)” for “(p110α/p85α)”, “phosphatidylinositol-4, 5-bisphosphate” for “phosphatidylinositol 4,5-bisphosphate”, “MgATP mix.” for “ATP solution.”, “streptavidin-allophycocyanin.” for “streptavidin allophycocyanin.”
as §4

The next series relates to protein kinases. To be noted: Cell, 2006, 125, 733-747; cited from earlier work.
Series [6] has as its system ovalbumin-induced airway inflammation. Particulars: murine asthma model, FASEB, 2006, 20: 455-465; cited from earlier work.
A further series concerns PI3Kδ. To be noted: Cell, 2006, 125, 733-747; cited from earlier work.

By CLint scaled is commonly meant the rate of metabolic loss divided by the concentration. As usually defined, the IC50 is the concentration that gives 50% inhibition. The AUC(0-t) is the area under the concentration-time curve up to a stated or last time point. A high value points to high exposure.

A value given as a limit tells only on which side of the number the result lay.

Sequence of PI3K (p110β/p85α) (h) (P42338 whole entry): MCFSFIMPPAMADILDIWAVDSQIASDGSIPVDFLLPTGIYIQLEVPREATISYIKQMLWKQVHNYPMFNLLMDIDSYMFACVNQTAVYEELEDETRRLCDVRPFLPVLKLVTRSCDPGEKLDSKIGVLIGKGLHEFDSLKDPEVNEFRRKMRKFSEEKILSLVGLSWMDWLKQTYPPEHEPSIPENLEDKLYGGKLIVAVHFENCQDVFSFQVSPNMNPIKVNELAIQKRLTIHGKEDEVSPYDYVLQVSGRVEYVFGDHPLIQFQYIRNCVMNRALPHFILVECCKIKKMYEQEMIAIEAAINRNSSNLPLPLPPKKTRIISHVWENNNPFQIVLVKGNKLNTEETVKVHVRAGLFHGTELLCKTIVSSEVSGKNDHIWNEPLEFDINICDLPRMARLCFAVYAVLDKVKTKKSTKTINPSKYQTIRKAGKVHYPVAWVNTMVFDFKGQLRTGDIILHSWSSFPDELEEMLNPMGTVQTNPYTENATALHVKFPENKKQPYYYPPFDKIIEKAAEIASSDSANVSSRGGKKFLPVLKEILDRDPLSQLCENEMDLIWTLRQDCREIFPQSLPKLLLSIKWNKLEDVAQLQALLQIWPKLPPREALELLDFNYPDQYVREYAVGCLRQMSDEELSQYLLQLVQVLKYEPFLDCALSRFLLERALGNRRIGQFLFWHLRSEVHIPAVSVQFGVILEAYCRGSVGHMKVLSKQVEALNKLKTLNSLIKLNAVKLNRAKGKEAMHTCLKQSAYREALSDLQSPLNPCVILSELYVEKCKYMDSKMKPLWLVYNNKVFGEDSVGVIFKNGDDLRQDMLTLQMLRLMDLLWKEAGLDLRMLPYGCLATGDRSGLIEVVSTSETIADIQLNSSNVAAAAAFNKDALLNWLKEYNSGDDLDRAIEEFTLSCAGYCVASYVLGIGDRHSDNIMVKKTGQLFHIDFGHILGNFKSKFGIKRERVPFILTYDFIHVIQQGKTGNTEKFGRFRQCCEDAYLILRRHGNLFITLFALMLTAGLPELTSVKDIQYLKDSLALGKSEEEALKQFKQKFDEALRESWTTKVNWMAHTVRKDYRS
Sequence of PI3K (p110β/p85α) (h) (P27986 whole entry partner): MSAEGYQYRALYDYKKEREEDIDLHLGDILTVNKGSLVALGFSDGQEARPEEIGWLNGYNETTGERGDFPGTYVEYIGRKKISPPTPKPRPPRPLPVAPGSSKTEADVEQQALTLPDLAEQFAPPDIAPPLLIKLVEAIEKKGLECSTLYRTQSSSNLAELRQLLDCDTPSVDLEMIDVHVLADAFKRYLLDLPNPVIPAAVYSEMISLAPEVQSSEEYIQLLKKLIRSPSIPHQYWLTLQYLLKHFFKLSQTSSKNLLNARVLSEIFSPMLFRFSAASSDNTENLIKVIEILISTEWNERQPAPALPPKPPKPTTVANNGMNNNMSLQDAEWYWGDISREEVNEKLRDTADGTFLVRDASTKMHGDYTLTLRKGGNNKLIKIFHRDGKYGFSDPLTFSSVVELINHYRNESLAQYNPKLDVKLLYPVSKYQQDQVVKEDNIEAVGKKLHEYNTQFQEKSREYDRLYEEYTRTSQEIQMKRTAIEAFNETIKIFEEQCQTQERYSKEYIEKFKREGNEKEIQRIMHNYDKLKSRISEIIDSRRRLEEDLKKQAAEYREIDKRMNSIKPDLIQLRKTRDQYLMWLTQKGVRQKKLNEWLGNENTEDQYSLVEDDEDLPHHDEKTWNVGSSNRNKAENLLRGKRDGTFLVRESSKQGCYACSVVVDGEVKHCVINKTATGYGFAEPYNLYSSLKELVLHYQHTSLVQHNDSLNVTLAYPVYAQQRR
Sequence of PI3K (p120γ) (h) (P48736 whole entry): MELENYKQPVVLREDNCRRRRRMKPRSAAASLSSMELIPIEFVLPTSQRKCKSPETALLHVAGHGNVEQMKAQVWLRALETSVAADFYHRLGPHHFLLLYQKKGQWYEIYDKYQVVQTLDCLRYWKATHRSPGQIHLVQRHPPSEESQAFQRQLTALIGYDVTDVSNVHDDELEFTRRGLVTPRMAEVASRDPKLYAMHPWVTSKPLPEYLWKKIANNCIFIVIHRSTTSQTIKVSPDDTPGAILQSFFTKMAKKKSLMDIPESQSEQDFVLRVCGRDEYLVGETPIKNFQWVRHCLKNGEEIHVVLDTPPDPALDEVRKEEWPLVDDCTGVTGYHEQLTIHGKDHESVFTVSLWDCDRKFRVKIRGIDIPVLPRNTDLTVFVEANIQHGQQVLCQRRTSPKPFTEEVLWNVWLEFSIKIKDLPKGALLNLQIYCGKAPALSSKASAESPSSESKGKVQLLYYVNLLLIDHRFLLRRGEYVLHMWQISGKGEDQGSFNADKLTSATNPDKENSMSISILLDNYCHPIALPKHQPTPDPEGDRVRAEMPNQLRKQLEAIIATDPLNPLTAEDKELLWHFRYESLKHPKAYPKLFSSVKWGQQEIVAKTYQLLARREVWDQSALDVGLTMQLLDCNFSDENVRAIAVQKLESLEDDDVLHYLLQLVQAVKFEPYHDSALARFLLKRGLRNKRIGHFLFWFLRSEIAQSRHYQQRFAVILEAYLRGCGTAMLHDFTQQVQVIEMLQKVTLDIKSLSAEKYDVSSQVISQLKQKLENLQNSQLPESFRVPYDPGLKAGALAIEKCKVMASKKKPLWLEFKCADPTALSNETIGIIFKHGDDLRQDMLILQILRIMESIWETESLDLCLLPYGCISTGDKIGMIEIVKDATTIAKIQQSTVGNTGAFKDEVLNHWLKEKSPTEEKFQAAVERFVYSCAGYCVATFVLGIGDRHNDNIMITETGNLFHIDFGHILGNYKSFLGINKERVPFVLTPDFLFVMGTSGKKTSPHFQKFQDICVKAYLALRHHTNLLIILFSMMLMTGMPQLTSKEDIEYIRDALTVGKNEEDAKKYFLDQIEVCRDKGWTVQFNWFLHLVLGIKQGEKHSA
Sequence of PI3K (p110α/p85α) (h) (P42336 whole entry): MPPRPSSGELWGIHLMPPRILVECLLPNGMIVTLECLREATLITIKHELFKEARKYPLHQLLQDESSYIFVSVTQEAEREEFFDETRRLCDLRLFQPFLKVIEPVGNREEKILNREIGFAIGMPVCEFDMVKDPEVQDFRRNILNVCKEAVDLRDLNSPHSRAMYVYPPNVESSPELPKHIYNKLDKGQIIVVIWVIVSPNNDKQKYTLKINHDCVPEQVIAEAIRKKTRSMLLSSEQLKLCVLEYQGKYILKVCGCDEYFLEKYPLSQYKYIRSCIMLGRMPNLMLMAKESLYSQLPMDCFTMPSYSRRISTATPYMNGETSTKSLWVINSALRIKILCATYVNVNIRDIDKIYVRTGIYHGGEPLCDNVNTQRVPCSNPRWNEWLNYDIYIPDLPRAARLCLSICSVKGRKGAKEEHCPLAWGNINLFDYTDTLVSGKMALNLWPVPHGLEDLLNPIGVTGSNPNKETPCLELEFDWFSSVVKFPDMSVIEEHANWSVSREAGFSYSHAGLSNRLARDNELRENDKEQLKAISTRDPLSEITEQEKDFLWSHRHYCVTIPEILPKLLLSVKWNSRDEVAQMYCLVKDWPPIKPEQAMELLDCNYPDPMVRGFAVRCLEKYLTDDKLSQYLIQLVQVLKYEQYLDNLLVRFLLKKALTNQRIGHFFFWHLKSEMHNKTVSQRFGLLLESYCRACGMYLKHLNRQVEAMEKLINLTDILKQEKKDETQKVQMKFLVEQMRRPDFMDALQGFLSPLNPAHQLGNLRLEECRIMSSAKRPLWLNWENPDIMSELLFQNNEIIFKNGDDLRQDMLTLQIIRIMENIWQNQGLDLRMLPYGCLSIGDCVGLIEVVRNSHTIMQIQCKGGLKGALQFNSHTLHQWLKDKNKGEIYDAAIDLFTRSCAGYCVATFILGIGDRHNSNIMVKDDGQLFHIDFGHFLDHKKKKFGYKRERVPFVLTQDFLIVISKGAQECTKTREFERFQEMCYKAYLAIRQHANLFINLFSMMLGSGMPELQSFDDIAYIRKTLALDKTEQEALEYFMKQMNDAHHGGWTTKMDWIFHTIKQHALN
Sequence of PI3K (p110α/p85α) (h) (P27986 whole entry partner): as the sequence (P27986 whole entry partner) above
Sequence of PI3K (p110δ/p85α) (h) (O00329 whole entry): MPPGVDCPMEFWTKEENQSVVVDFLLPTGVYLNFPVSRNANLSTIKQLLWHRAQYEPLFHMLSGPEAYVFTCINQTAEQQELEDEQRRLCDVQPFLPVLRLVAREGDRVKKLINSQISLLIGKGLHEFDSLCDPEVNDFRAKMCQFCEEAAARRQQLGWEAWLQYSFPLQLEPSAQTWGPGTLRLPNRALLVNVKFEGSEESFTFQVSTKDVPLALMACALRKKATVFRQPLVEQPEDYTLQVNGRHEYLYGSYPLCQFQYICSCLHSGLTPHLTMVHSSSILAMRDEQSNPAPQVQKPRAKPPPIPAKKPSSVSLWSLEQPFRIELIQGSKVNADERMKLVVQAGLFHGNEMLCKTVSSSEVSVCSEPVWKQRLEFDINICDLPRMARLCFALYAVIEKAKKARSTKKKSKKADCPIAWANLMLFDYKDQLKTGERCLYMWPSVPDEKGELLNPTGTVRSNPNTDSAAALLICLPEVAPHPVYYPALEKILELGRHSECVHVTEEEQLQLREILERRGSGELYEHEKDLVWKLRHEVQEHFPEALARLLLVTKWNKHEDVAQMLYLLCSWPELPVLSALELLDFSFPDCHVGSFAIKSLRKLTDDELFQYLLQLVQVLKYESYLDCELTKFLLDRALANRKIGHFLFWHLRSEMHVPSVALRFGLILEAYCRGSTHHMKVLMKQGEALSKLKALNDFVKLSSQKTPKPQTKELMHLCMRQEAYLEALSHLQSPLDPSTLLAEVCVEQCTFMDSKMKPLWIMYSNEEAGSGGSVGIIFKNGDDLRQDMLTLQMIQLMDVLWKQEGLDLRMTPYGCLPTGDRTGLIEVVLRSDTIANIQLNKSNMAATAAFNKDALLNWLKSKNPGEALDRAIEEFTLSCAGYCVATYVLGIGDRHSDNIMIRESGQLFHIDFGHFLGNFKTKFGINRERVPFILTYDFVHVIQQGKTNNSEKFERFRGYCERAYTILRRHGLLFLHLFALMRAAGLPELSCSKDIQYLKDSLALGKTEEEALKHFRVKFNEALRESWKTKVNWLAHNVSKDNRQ
Sequence of PI3K (p110δ/p85α) (h) (P27986 whole entry partner): as the sequence (P27986 whole entry partner) above

For the molecule `O=C1NC(=O)/C(=C\c2ccc3nccnc3c2)S1` [AS 605240], in [1], the “effect on onset of disease in model of systemic lupus erythematosis” value was “delay onset of disease”. The “efficacy in mouse model of rheumatoid arthritis” value in [2] is given as “efficacious”.
For the molecule `CC[C@H](Nc1ncnc(N)c1-c1nnc(C)o1)c1cc2cccc(Cl)c2c(=O)n1-c1ccccc1` [Ex. 5, (S)-3-(1-((6-amino-5-(5-methyl-1,3,4-oxadiazol-2-yl)pyrimidin-4-yl)amino)propyl)-8-chloro-2-phenylisoquinolin-1(2H)-one], the CLint scaled at 5 μM in series [3] is 108 mL/min/kg; in series [5] it was 29.2 mL/min/kg. Moreover, the half-life at 5 μM in series [3] is 23.1 min; in series [5] it was 59.6 min. The IC50 at PI3K (p110α/p85α) (h) was > 3000 nM; on PI3K (p120γ) (h), 388 nM; on PI3K (p110β/p85α) (h), 259 nM. The molecule further came in with a Cl/F in series [4] (iv dosing 1 mg/kg) of 52.2 mL/min/kg. This molecule came in with a F in series [4] (oral vs iv (iv 1 mg/kg; p.o. generally 5 or 10 mg/kg)) of 106.3%. Besides, the AUC(0-t) in series [4] (rat, plasma, iv dosing 1 mg/kg) came to 320 ng·h/mL. The same molecule gave a half-life in series [4] (rat, plasma, iv dosing 1 mg/kg) of 31.8 min. For the same molecule, the Vd in [4] (rat, plasma, iv dosing 1 mg/kg, read-out: Vss) was determined as 1.87 L/kg.
Take `Cc1nnc(-c2c(N)ncnc2N[C@@H](C)c2cc3cccc(-c4cnn(C)c4)c3c(=O)n2-c2ccccc2)o1` [Ex. 27, (S)-3-(1-((6-amino-5-(5-methyl-1,3,4-oxadiazol-2-yl)pyrimidin-4-yl)amino)ethyl)-8-(1-methyl-1H-pyrazol-4-yl)-2-phenylisoquinolin-1(2H)-one]: the CLint scaled at 5 μM in series [3] is 33.3 mL/min/kg; in series [5], 15.5 mL/min/kg. Further, the values for the half-life at 5 μM in [3] and in series [5] were 74.5 min and 112 min, respectively. The half-maximal inhibitory concentration (IC50) on PI3K (p110α/p85α) (h) is > 3000 nM; at PI3K (p120γ) (h), 237 nM; at PI3K (p110δ/p85α) (h) it was 17 nM; at PI3K (p110β/p85α) (h) it was > 3000 nM.
Take `Cc1noc(-c2c(N)ncnc2N[C@@H](C)c2cc3cccc(-c4cnn(C)c4)c3c(=O)n2-c2ccccc2)n1` [Ex. 28, (S)-3-(1-((6-amino-5-(3-methyl-1,2,4-oxadiazol-5-yl)pyrimidin-4-yl)amino)ethyl)-8-(1-methyl-1H-pyrazol-4-yl)-2-phenylisoquinolin-1(2H)-one]: the CLint scaled at 5 μM in series [3] was 72.7 mL/min/kg; in [5], 64.1 mL/min/kg. The figures for the half-life at 5 μM in series [3] and in series [5] were 34.2 min and 27.1 min, respectively. For the same molecule, the half-inhibitory concentration (IC50) at PI3K (p110α/p85α) (h) was 225 nM; on PI3K (p120γ) (h), 104 nM; on PI3K (p110δ/p85α) (h) it was 9 nM; at PI3K (p110β/p85α) (h), 1170 nM.
On to `Cc1ccccc1-n1c(Cn2cnc3c(N)ncnc32)nc2cccc(C)c2c1=O` [IC87114], for which the “activity against any protein kinases tested” value in the series on protein kinases was “no activity”. Besides, the “effect on inflammation and disease” value in [6] was “significantly ameliorate inflammation and disease”. The “inhibits PI3Kδ” value with PI3Kδ is listed as “high nanomolar range (triple digit)”.
